Patent US10266544B2, “Aryl substituted aminomethyl spectinomycin analogs as antibacterial agents” (ST. JUDE CHILDREN'S RESEARCH HOSPITAL, INC., priority 2013, dated 2019)
Where a name gives a salt, the structure may show the parent alone. Read-outs that look alike come from different tables or passages of the source.

What was measured:
Format in all cases: cell-based
[1] = system: Staphylococcus aureus (ATCC 29213); experiment: MIC determination, microbroth dilution
[2] = system: Proteus vulgaris (ATCC 33420); experiment: MIC determination, microbroth dilution; conditions: ATCC33420
Yersinia pestis = experiment: microbe, parasite or virus in culture; conditions: read-out: MIC Y.p.
[3] = system: Haemophilus influenza (ATCC 49247); experiment: microbe, parasite or virus in culture; conditions: ATCC49247; Haemophilus influenza; 4 μg per disc; range of at least two experiments; read-out: Zone of inhibition H.i.
[4] = system: Neisseria meningitides (ATCC 13077); experiment: Disc diffusion assay; conditions: ATCC13077, 4 μg per disc, read-out: Zone of inhibition N.m.
[5] = system: Burkholderia cepacia (ATCC 25416); experiment: MIC determination, microbroth dilution; conditions: Burkholderia cepacia
[6] = system: Stenotrophomonas maltophilia (ATCC 13637); experiment: MIC determination, microbroth dilution
[7] = system: Proteus mirabilis (ATCC 25933); experiment: MIC determination, microbroth dilution; conditions: ATCC25933
[8] = system: Escherichia coli (ATCC 700926); experiment: MIC determination, microbroth dilution; conditions: ATCC700926; Escherichia coli (ATCC 700926); read-out: MIC E.c.
[9] = system: acinetobacter baumannii (ATCC 19606); experiment: MIC determination, microbroth dilution; conditions: ATCC19606
[10] = system: Bacillus anthracis, Sterne 34F2; experiment: microbe, parasite or virus in culture; conditions: STERNE34F2, read-out: MIC B.a.
[11] = system: Legionella pneumophila (ATCC 33153); experiment: microbe, parasite or virus in culture; conditions: ATCC33153, 72 h, read-out: Zone of inhibition L.p.
[12] = system: MRSA, Staphylococcus aureus (NRS70); experiment: MIC determination, microbroth dilution; conditions: Staphylococcus aureus (NRS70); read-out: MIC MRSA
[13] = system: Klebsiella pneumoniae (ATCC 33495); experiment: MIC determination, microbroth dilution; conditions: ATCC33495
[14] = system: Bacillus subtilis (ATCC 23857); experiment: MIC determination, microbroth dilution; conditions: ATCC23857; Bacillus subtilis (ATCC 23857); read-out: MIC B.s.
[15] = system: Neisseria gonorrhoeae (ATCC 49226); experiment: Disc diffusion assay; conditions: ATCC49226, 4 μg per disc, read-out: Zone of inhibition N.g.
[16] = system: Pseudomonas aeruginosa (PA01); experiment: MIC determination, microbroth dilution
Bacillus anthracis = experiment: microbe, parasite or virus in culture; conditions: read-out: MIC B.a.
[17] = system: M. tuberculosis clinical isolates; experiment: microbe, parasite or virus in culture; conditions: Mycobacterium tuberculosis
[18] = system: Streptococcus pneumoniae clinical isolates representing several serotypes; experiment: MIC determination, Streptococcus pneumoniae panel of clinical isolates (Table 7); conditions: Streptococcus pneumoniae
[19] = system: live vaccine strain (LVS) of Francisella tularensis; experiment: microbe, parasite or virus in culture; conditions: Francisella tularensis, read-out: MIC F.t.
E. coli K12 ΔtolC = experiment: microbe, parasite or virus in culture; conditions: Escherichia coli, read-out: MIC E.c. Δtolc
[20] = system: Streptococcus pneumoniae (R6); experiment: MIC determination, microbroth dilution
Listeria monocytogenes = experiment: MIC determination (Table 6)
[21] = system: Streptococcus pyogenes (ATCC 700294); experiment: MIC determination, microbroth dilution
Moraxella catarrhalis = experiment: MIC determination (Table 6)
[22] = system: Enterococcus faecalis (ATCC 33186); experiment: MIC determination, microbroth dilution
[23] = system: Neisseria gonorrhoeae (ATCC 49226); experiment: Agar MIC determination (Alamar Blue); conditions: ATCC49226, agar MIC, read-out: MIC N.g.
[24] = ATCC25416, read-out: MIC B.c., Burkholderia cepacia (ATCC 25416)
[25] = ATCC25416, read-out: MIC B.c., Burkholderia cepacia, Table 6
[26] = ATCC13637, Stenotrophomonas maltophilia (ATCC 13637), read-out: MIC S.m.
[27] = Streptococcus pneumoniae (R6), read-out: MIC S. pn.
[28] = ATCC700294, Streptococcus pyogenes (ATCC 700294), read-out: MIC S. py.
[29] = ATCC33186, Enterococcus faecalis (ATCC 33186), read-out: MIC E.f.
[30] = ATCC29213, Staphylococcus aureus (ATCC 29213), read-out: MIC S.a.

CN[C@@H]1[C@H](O)[C@H](NC)[C@H]2O[C@]3(O)[C@H](O[C@@H]2[C@H]1O)O[C@H](C)C[C@@]3(O)CNCCc1ccccc1 [compound 6, 3′-(R)-3′-(phenethylaminomethyl)dihydrospectinomycin Trihydrochloride]
MIC ([1]; Staphylococcus aureus, ATCC29213, read-out: MIC S.a.): 6.3 to 12.5 µg/mL
MIC [2]: 50 to 100 µg/mL
MIC (Yersinia pestis): 200 µg/mL
zone of inhibition at 4 µg/disc [3]: 14 mm
zone of inhibition at 4 µg/disc [4]: 16 mm
MIC [5, 24]: > 200 µg/mL
MIC [5, 25]: > 200 µg/mL
MIC [6, 26]: 1.6 µg/mL
MIC [7]: > 200 µg/mL
MIC [8]: 6.3 to 12.5 µg/mL
MIC [9]: > 200 µg/mL
MIC [10]: 6.3 to 12.5 µg/mL
zone of inhibition at 4 µg/disc [11]: 36 mm
MIC [12]: 12.5 to 25 µg/mL
MIC [13]: 25 to 50 µg/mL
MIC [14]: 1.6 µg/mL
zone of inhibition at 4 µg/disc [15]: 16 mm
MIC [16]: ≥ 200 µg/mL
MIC (Bacillus anthracis): 6.3 to 12.5 µg/mL
MIC ([17]; H37RV, read-out: MIC H37Rv): 1.6 µg/mL
MIC ([17]; read-out: MIC TN022): 3.1 µg/mL
MIC ([17]; read-out: MIC TN026): 3.1 µg/mL
MIC ([18]; BAA1407, S. pneumoniae BAA-1407, Macrolide Resistant, read-out: MIC BAA-1407): 12.5 µg/mL
MIC ([18]; S. pneumoniae A66.1x, Drug Susceptible, read-out: MIC A66.1x): 3.1 µg/mL
MIC ([18]; S. pneumoniae BHN97x, Drug Susceptible, read-out: MIC BHN97x): 3.1 µg/mL
MIC ([18]; S. pneumoniae D39X, Drug Susceptible, read-out: MIC D39X): 3.1 µg/mL
MIC ([18]; S. pneumoniae Daw7, PenG Resistant, read-out: MIC Daw7): 6.3 µg/mL
MIC ([18]; S. pneumoniae Daw8, PenG Resistant, read-out: MIC Daw8): 6.3 µg/mL
MIC ([18]; S. pneumoniae Daw9, PenG Resistant, read-out: MIC Daw9): 6.3 µg/mL
MIC ([18]; S. pneumoniae Daw62, PenG Resistant, read-out: MIC Daw62): 6.3 µg/mL
MIC ([18]; S. pneumoniae Daw64, PenG Resistant, read-out: MIC Daw64): 6.3 µg/mL
MIC ([18]; S. pneumoniae OVA6, Macrolide Resistant, read-out: MIC OVA6): 3.1 µg/mL
MIC ([18]; S. pneumoniae T4X, Drug Susceptible, read-out: MIC T4X): 3.1 µg/mL
MIC [19]: 1.6 µg/mL
MIC (E. coli K12 ΔtolC): 3.1 to 6.3 µg/mL
MIC [20, 27]: 3.1 µg/mL
MIC ([20]; Streptococcus pneumoniae, S. pneumoniae R6, Drug Susceptible, read-out: MIC R6): 6.3 µg/mL
MIC (Listeria monocytogenes): 3.1 µg/mL
MIC [21, 28]: 3.1 µg/mL
MIC (Moraxella catarrhalis): 0.4 µg/mL
MIC [22, 29]: 12.5 µg/mL

CN[C@@H]1[C@H](O)[C@H](NC)[C@H]2O[C@]3(O)[C@H](O[C@@H]2[C@H]1O)O[C@H](C)C[C@@]3(O)CNCc1cccc(F)c1 [compound 15, 3′-(R)-3′-[(3-fluoro)benzylaminomethyl)]dihydrospectinomycin Trihydrochloride]
MIC [1, 30]: 100 µg/mL
MIC [2]: 200 µg/mL
MIC (Yersinia pestis): 100 µg/mL
zone of inhibition at 4 µg/disc [3]: 14 mm
zone of inhibition at 4 µg/disc [4]: 20 mm
MIC [5, 24]: ≥ 200 µg/mL
MIC [5, 25]: ≥ 200 µg/mL
MIC [6, 26]: 12.5 µg/mL
MIC [7]: > 200 µg/mL
MIC [8]: 25 to 50 µg/mL
MIC [9]: > 200 µg/mL
MIC [23]: 25 to 50 µg/mL
MIC [10]: 12.5 to 25 µg/mL
zone of inhibition at 4 µg/disc [11]: 41 mm
MIC [12]: 50 µg/mL
MIC [13]: > 200 µg/mL
MIC [14]: 3.1 to 6.3 µg/mL
zone of inhibition at 4 µg/disc [15]: 18 mm
MIC [16]: ≥ 200 µg/mL
MIC (Bacillus anthracis): 12.5 to 25 µg/mL
MIC ([17]; H37RV, read-out: MIC H37Rv): 25 µg/mL
MIC (E. coli K12 ΔtolC): 6.3 to 12.5 µg/mL
MIC [20, 27]: 3.1 µg/mL
MIC (Listeria monocytogenes): 6.3 µg/mL
MIC [21, 28]: 3.1 µg/mL
MIC (Moraxella catarrhalis): 1.6 µg/mL
MIC ([22]; Enterococcus faecalis, ATCC33186, read-out: MIC E.f.): 12.5 to 25 µg/mL

CN[C@@H]1[C@H](O)[C@H](NC)[C@H]2O[C@]3(O)[C@H](O[C@@H]2[C@H]1O)O[C@H](C)C[C@@]3(O)CNCc1ccccn1 [compound 16, 3′-(R)-3′-(2-pyridinylmethylaminomethyl)dihydrospectinomycin Tetrahydrobromide]
MIC [1, 30]: 100 to 200 µg/mL
MIC [2]: > 200 µg/mL
MIC (Yersinia pestis): 100 µg/mL
zone of inhibition at 4 µg/disc [3]: 7 mm
zone of inhibition at 4 µg/disc [4]: 13 mm
MIC [5, 24]: > 200 µg/mL
MIC [5, 25]: > 200 µg/mL
MIC ([6]; Stenotrophomonas maltophilia, ATCC13637, read-out: MIC S.m.): 12.5 to 25 µg/mL
MIC [7]: > 200 µg/mL
MIC [8]: 100 to 200 µg/mL
MIC [9]: > 200 µg/mL
MIC [23]: ≥ 200 µg/mL
MIC [10]: 50 µg/mL
zone of inhibition at 4 µg/disc [11]: 34 mm
MIC [12]: > 200 µg/mL
MIC [13]: 200 µg/mL
MIC [14]: 50 µg/mL
zone of inhibition at 4 µg/disc [15]: 6 mm
MIC [16]: > 200 µg/mL
MIC (Bacillus anthracis): 50 µg/mL
MIC ([17]; H37RV, read-out: MIC H37Rv): 12.5 µg/mL
MIC (E. coli K12 ΔtolC): 50 µg/mL
MIC ([20]; Streptococcus pneumoniae, read-out: MIC S. pn.): 12.5 µg/mL
MIC (Listeria monocytogenes): 25 µg/mL
MIC ([21]; Streptococcus pyogenes, ATCC700294, read-out: MIC S. py.): 12.5 to 25 µg/mL
MIC (Moraxella catarrhalis): 12.5 µg/mL
MIC [22, 29]: 100 µg/mL

CN[C@@H]1[C@H](O)[C@H](NC)[C@H]2O[C@]3(O)[C@H](O[C@@H]2[C@H]1O)O[C@H](C)C[C@@]3(O)CNCc1ccccc1F [compound 14, 3′-(R)-3′-[(2-fluoro)benzylaminomethyl)]dihydrospectinomycin Trihydrochloride]
MIC [1, 30]: 200 µg/mL
MIC [2]: 100 µg/mL
MIC (Yersinia pestis): > 200 µg/mL
zone of inhibition at 4 µg/disc [3]: 11 to 12 mm
zone of inhibition at 4 µg/disc [4]: 19 mm
MIC [5, 24]: 100 to 200 µg/mL
MIC [5, 25]: 100 to 200 µg/mL
MIC [6, 26]: 12.5 to 25 µg/mL
MIC [7]: > 200 µg/mL
MIC [8]: 50 µg/mL
MIC [9]: > 200 µg/mL
MIC [23]: 12.5 to 25 µg/mL
MIC [10]: 50 to 100 µg/mL
zone of inhibition at 4 µg/disc [11]: 36 mm
MIC [12]: ≥ 200 µg/mL
MIC [13]: ≥ 200 µg/mL
MIC [14]: 6.3 µg/mL
zone of inhibition at 4 µg/disc [15]: 18 mm
MIC [16]: ≥ 200 µg/mL
MIC (Bacillus anthracis): 50 to 100 µg/mL
MIC ([17]; H37RV, read-out: MIC H37Rv): 50 µg/mL
MIC (E. coli K12 ΔtolC): 25 µg/mL
MIC [20, 27]: 3.1 to 6.3 µg/mL
MIC (Listeria monocytogenes): 25 µg/mL
MIC [21, 28]: 3.1 µg/mL
MIC (Moraxella catarrhalis): 1.6 µg/mL
MIC [22, 29]: 50 µg/mL
